pIC50: −log10 of the molar value.
Tests used:
[1] = target: T1, ACAT in J774 cell (Mus musculus, UniProt Q61263); experiment: ACAT inhibiting activity in J774 cell (anti-foaming activity); format: cell-based; settings: for IC50 (HepG 2)/IC50 (J 774): ratio of the two cell IC50 values; for pIC50: J774 cell, 10 μg/ml 25-OH cholesterol, 18 hours, cholesterol ester per protein, read-out: J 774 Cell-Derived Enzyme IC50
T1 construct: endogenous in cells; host or cells: J774 cells
T1 sequence (Q61263 1-540): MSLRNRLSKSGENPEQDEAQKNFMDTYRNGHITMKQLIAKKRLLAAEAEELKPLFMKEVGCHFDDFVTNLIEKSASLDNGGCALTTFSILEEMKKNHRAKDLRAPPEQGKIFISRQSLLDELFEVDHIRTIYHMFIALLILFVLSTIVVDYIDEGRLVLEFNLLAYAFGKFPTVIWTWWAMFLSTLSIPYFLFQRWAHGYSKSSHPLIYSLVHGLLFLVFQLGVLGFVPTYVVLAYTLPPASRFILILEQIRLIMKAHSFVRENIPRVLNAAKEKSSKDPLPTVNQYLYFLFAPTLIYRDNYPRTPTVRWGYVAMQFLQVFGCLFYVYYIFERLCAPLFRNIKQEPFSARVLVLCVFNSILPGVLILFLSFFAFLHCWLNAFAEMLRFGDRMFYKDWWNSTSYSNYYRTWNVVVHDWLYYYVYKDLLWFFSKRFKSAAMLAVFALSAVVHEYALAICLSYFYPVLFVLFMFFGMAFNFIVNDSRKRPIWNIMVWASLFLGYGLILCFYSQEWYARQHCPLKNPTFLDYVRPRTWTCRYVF
Protocol: (§1) ACAT inhibiting activities in J774 cell and HepG2 cell (Anti-foaming activities).
(§2) J774 cell and HepG2 cell were sown on 24-holes-plates, and J774 cell was cultured with DMEM culturing solution (including 10% fetal bovine serum) and HepG2 cell was cultured with MEM culturing solution (including 10% fatal bovine serum) and they were incubated with 5% CO2 at 37° C. for 24 hours. […] After redwing the medium, each cultured cell was washed with PBS two ties, and then extracted with 1.5 ml of hexane:iso-propanol (3:2), and concentrated and dried. Each extracted substance was dissolved into iso-propanol including 0.2 ml of 10% Triton X-100. And total cholesterol (TC) of each was measured with Cholesterol E Test Wako (Wako Junyaku Co.), and free cholesterol […] of each was measured with Free Cholesterol E Test Wako (Wako Junyaku Co.). The residue of extracting was dissolved with 0.25 ml of 2N NaOH at 37° C. for 30 minutes, and an amount of protein was measured with BCA Protein Assay Reagent (Pierce). The amount of cholesterol ester per protein was calculated based on a difference between TC and FC, and IC50 was calculated in contrast with control.

[2] = target: T2, ACAT (small intestine-derived enzyme) (Oryctolagus cuniculus, UniProt G1SFD9); experiment: ACAT inhibiting activity, small intestine-derived enzyme liquid; format: biochemical, rabbit; settings: small intestines of rabbits fed ordinary feed; 14C-oleoyl-CoA; 37° C. 3 minutes
T2 sequence (G1SFD9 1-524): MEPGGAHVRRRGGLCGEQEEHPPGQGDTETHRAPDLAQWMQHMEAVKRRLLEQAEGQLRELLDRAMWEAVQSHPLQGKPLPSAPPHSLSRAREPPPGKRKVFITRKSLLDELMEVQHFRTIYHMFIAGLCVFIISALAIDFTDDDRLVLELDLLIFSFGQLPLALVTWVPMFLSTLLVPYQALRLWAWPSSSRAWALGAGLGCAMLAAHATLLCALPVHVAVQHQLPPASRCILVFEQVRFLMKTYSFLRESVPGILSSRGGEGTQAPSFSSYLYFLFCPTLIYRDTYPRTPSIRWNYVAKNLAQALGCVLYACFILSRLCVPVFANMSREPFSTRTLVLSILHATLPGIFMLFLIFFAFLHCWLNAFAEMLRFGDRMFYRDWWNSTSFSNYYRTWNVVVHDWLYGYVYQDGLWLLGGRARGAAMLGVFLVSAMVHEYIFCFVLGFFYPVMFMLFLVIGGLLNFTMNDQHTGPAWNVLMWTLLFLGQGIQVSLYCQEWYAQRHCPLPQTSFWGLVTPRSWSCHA
Protocol: (§3) Rabbits were fed with 1% cholesterol feed for 8 weeks. Microsomes were prepared from the thoracoaorta of the rabbits in an ordinary manner, and suspended in 0.15 M phosphate buffer (pH 7.4) to prepare blood vessel wall-derived enzyme liquids, Small intestine-derived enzyme liquids were prepared from the small intestines of rabbits fed with ordinary feed. […] 10 μl of the enzyme liquid was added to the resulting solution and reacted at 37° C. for 5 minutes (for small intestine-derived enzyme liquids, for 3 minutes), and thereafter 3 ml of chloroform/methanol (2/1) and 0.5 ml of 0.04 N HCl were added thereto to stop the reaction. After the reaction, lipids were extracted from the reaction mixtures. The solvent layer was concentrated to dryness, then dissolved in hexane, spotted on a TLC plate (produced by Merck), and developed thereon with a developer of hexane/ether/acetic acid (75/25/1) The radioactivity of the thus-fractionated cholesterol ester fraction was measured with BAS2000 (produced by Fuji Film).

[3] = tested on: ACAT in HepG2 cell; experiment: ACAT inhibiting activity in HepG2 cell; format: cell-based; settings: 10 μg/ml 25-OH cholesterol, 18 hours, cholesterol ester per protein, read-out: HepG 2-Derived Enzyme IC50
Protocol: as §1, §2

[4] = target: ACAT (blood vessel wall-derived enzyme) (Oryctolagus cuniculus, UniProt G1SUQ0); experiment: ACAT inhibiting activity, blood vessel wall-derived enzyme liquid (thoracoaorta microsomes); format: biochemical, rabbit; settings: microsomes from thoracoaorta of rabbits fed 1% cholesterol feed; 14C-oleoyl-CoA; 37° C. 5 minutes
Protocol: as §3

[5] = Deterioration action of cholesterol in plasma, F1B hamster on hyperfat foods; format: in vivo, BIO F1B hybrid syrian hamster; settings: for inhibiting an increase (%): 4th week, against hyperfat and ordinal foods groups; for Total Cholestrol in Plasma, At the 4th Week: fed 4 weeks
Protocol: A deterioration action of cholesterol in plasma was tested with BIO F1B hybrid syrian hamster (Mark C. K. et al., Atheorosclerosis, 91 (1991) 35-49: abbreviated as FIB hamster in the following) which has an accumulation of Cholesterol in blood vessel by cholesterol load. That is 4 groups of FIB hamster (male, 8 weeks old, about 100 g weight) were made, which had five hamsters respectively, and the hamsters were fed with the below-described feeds corresponding to each group for 4 weeks. At the 4th week from beginning feed, blood of the hamsters were drawn from their jugulars; and values of total cholesterols in plasma were measured with the enzyme method.

[6] = group (3): 0.03% compound added to hyperfat foods
[7] = group (4): 0.3% compound added to hyperfat foods

ACAT (blood vessel wall-derived enzyme), sequence (G1SUQ0 entry or part of it): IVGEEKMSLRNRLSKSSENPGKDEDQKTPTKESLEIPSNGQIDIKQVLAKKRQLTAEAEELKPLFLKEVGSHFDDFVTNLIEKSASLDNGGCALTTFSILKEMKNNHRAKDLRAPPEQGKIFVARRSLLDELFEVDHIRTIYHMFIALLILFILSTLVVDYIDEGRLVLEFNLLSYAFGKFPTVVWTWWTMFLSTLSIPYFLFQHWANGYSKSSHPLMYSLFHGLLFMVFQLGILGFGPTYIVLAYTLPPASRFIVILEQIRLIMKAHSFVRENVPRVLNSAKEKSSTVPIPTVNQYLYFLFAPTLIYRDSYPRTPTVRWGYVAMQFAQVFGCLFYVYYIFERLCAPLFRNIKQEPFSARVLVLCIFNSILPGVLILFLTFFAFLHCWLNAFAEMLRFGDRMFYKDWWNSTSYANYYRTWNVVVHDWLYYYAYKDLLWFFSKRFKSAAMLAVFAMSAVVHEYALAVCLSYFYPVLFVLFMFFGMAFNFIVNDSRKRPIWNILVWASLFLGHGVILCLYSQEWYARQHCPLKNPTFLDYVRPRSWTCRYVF

CC(C)c1cccc(C(C)C)c1NC(=O)C(C)(C)CCCOc1ccc2c(c1)C=C(c1nccn1C)C(CCc1ccc(F)cc1)O2 (stereo not shown) [Control (1), 5-[2-(2-(4-fluorophenyl)ethyl)-3-(1-methyl-1H-imidazol-2-yl) -2H-benzopyran-6-yl]oxy-2,2-dimethyl-N-(2,6-diisopropylphenyl)pentanamide, reference compound]
IC50 (HepG 2)/IC50 (J 774) [1]: 9.46
pIC50 [2]: 6.06

CCCCCCCCCCCCCCSCC(=O)Nc1c(C(C)C)cccc1C(C)C [Control (2), N-(2,6-diisopropylphenyl) -2-(tetradecylthio)acetamide, reference compound]
pIC50 [1]: 6.82
pIC50 [3]: 5.85

CCCCCCCN(CCCCCSc1nc(-c2ccccc2)c(-c2ccccc2)[nH]1)c1nc2ccccc2o1 [Control (4), N4-[5-(4,5-diphenyl-1H-imidazol-2-ylthio)pentyl]-N-heptyl-2-benzoxazolamine, reference compound]
pIC50 [1]: 6.92
IC50 (HepG 2)/IC50 (J 774) [1]: 6.26
pIC50 [4]: 7.59
pIC50 [2]: 7.43

CC(C)c1cccc(C(C)C)c1NC(=O)CSc1nc2ccccc2o1 [Example 1, 2-(benzoxazol-2-ylthio)-N-(2,6-diisopropylphenyl)acetamide]
pIC50 [1]: 5.92
IC50 (HepG 2)/IC50 (J 774) [1]: 0.83
pIC50 [3]: 6.00

CC(C)c1cccc(C(C)C)c1NC(=O)CCSc1nc2ccccc2o1 [Example 2, 3-(benzoxazol-2-ylthio)-N-(2,6-diisopropylphenyl)propanamide]
pIC50 [1]: 6.33
IC50 (HepG 2)/IC50 (J 774) [1]: 2.55
pIC50 [3]: 5.92

CC(C)c1cccc(C(C)C)c1NC(=O)CCCCCSc1nc2ccccc2o1 [Example 5, 6-(benzoxazol-2-ylthio)-N-(2,6-diisopropylphenyl)hexanamide]
pIC50 [4]: 8.00
pIC50 [2]: 7.19

CC(C)c1cccc(C(C)C)c1NC(=O)CCCCCCCCSc1nc2ccccc2o1 [Example 8, 9-(benzoxazol-2-ylthio)-N-(2,6-diisopropylphenyl)nonanamide]
inhibiting an increase (%) [5, 6]: 80.5%
Total Cholestrol in Plasma, Before Dosage [5, 6]: 155.5 ± 10.1 mg/dL
Total Cholestrol in Plasma, At the 4th Week [5, 6]: 398.3 ± 64.3 mg/dL
inhibiting an increase (%) [5, 7]: 111.7%
Total Cholestrol in Plasma, Before Dosage [5, 7]: 164.3 ± 8.8 mg/dL
Total Cholestrol in Plasma, At the 4th Week [5, 7]: 170.1 ± 18.5 mg/dL

CC(C)c1cccc(C(C)C)c1NC(=O)CSc1nc2ccccc2[nH]1 [Example 23, 2-(benzimidazol-2-ylthio)-N-(2,6-diisopropylphenyl)acetamide]
pIC50 [1]: 5.66
IC50 (HepG 2)/IC50 (J 774) [1]: 6.45
pIC50 [3]: 4.92

CC(C)c1cccc(C(C)C)c1NC(=O)CCCSc1nc2ccccc2s1 [Example 44, 4-(benzothiazol-2-ylthio)-N-(2,6-diisopropylphenyl)butanamide]
pIC50 [1]: 5.25
IC50 (HepG 2)/IC50 (J 774) [1]: 0.38
pIC50 [3]: 5.68

— US6825223B2, “Anilide compounds and pharmaceutical compositions comprising them” (Kowa Company, Ltd., priority 1996, dated 2004)
